From ChEMBL document CHEMBL1143658, “Discovery of 2-[(2,4-dichlorophenyl)amino]-N-[(tetrahydro- 2H-pyran-4-yl)methyl]-4-(trifluoromethyl)- 5-pyrimidinecarboxamide, a selective CB2 receptor agonist for the treatment of inflammatory pain” (J Med Chem, 2007)

Key:
Cannabinoid receptor 2 [1] = target: T1, Cannabinoid receptor 2 (Homo sapiens, UniProt P34972); test: Agonist activity at human recombinant CB2 receptor expressed in Saccharomyces cerevisiae cells; format: functional, cell-based
Cannabinoid receptor 2 [2] = target: T1, Cannabinoid receptor 2; test: Efficacy at human recombinant CB2 receptor expressed in Saccharomyces cerevisiae cells relative to HU210; format: cell-based
Cytochrome P450 1A2 = target: T2, Cytochrome P450 1A2 (Homo sapiens, UniProt P05177); test: Inhibition of human CYP1A2; format: ADME
T2 sequence (P05177 whole entry): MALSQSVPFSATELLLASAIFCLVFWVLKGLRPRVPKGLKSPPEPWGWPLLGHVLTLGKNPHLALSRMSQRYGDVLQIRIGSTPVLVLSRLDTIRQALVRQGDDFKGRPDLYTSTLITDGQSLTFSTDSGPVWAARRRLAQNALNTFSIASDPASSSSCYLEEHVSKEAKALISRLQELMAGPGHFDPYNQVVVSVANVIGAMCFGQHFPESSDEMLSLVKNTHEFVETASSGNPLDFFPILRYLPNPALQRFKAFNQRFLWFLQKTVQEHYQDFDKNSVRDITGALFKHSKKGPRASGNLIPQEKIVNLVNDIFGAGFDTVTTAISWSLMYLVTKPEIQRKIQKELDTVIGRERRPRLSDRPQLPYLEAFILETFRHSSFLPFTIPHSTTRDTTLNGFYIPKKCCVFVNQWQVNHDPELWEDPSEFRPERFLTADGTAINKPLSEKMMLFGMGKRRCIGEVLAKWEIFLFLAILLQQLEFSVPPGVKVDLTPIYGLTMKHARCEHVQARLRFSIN

Cytochrome P450 2C9 = Cytochrome P450 2C9 (Homo sapiens, UniProt P11712); test: Inhibition of human CYP2C9; format: ADME
Cytochrome P450 2C19 = Cytochrome P450 2C19 (Homo sapiens, UniProt P33261); test: Inhibition of human CYP2C19; format: ADME
Cytochrome P450 2D6 = Cytochrome P450 2D6 (Homo sapiens, UniProt P10635); test: Inhibition of human CYP2D6; format: ADME
Cytochrome P450 3A4 = Cytochrome P450 3A4 (Homo sapiens, UniProt P08684); test: Inhibition of human CYP3A4
Liver microsomes = test: Intrinsic clearance in rat liver microsome; format: ADME
[3] = target: Cannabinoid receptor 1 (Homo sapiens) (UniProt P21554); test: Agonist activity at recombinant human CB1 receptor expressed in Saccharomyces cerevisiae cells at 2 uM; format: functional, cell-based
Chain of Cannabinoid receptor 1 (Homo sapiens) (P21554 whole entry): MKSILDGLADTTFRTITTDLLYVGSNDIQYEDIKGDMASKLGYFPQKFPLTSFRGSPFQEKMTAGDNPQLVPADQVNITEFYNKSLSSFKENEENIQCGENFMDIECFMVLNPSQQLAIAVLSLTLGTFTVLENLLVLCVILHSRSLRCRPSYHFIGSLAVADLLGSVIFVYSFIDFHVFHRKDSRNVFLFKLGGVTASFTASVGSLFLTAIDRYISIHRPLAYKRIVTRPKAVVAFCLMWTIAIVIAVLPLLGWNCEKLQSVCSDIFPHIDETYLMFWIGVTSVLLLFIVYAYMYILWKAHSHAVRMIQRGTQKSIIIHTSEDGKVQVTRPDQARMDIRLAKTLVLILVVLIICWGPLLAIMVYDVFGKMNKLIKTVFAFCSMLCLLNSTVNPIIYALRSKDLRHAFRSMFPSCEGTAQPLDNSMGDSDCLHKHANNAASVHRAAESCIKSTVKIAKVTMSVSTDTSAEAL

Chain of Cytochrome P450 2C19 (P33261 whole entry): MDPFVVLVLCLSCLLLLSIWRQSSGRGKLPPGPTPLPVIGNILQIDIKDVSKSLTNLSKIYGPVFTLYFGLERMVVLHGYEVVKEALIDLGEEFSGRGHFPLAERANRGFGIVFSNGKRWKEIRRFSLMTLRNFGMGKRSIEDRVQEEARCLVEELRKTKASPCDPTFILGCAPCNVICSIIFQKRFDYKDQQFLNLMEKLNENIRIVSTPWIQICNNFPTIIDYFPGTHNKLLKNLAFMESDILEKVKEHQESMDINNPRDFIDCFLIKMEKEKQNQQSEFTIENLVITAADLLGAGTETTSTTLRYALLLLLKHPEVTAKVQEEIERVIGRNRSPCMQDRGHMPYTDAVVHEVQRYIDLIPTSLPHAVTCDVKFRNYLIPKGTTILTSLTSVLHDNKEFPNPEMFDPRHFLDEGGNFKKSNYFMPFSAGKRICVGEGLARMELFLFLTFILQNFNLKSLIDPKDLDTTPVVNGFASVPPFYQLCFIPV
T1 sequence (P34972 whole entry): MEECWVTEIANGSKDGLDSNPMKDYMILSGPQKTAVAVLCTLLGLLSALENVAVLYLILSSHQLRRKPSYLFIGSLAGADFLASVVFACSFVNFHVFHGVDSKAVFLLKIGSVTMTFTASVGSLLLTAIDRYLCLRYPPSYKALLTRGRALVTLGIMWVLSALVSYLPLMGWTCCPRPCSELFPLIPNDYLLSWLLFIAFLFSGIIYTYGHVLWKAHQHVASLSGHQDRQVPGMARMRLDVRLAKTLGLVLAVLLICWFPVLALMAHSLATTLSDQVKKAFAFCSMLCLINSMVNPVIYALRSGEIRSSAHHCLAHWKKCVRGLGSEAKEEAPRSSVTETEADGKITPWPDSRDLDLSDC
Chain of Cytochrome P450 2D6 (P10635 whole entry): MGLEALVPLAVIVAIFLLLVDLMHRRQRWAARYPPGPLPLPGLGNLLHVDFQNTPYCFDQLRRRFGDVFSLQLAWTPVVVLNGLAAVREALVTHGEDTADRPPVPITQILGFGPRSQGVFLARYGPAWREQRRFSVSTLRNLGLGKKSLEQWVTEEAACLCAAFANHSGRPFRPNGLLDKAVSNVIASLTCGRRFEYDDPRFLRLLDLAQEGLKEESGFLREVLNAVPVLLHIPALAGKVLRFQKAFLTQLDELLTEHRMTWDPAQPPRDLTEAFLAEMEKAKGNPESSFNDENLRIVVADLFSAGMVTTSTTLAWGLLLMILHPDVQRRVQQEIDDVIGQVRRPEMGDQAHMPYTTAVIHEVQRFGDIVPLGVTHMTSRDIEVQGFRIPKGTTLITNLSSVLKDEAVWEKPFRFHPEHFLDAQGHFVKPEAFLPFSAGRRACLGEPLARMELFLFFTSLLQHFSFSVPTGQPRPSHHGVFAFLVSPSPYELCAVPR
Chain of Cytochrome P450 3A4 (P08684 whole entry): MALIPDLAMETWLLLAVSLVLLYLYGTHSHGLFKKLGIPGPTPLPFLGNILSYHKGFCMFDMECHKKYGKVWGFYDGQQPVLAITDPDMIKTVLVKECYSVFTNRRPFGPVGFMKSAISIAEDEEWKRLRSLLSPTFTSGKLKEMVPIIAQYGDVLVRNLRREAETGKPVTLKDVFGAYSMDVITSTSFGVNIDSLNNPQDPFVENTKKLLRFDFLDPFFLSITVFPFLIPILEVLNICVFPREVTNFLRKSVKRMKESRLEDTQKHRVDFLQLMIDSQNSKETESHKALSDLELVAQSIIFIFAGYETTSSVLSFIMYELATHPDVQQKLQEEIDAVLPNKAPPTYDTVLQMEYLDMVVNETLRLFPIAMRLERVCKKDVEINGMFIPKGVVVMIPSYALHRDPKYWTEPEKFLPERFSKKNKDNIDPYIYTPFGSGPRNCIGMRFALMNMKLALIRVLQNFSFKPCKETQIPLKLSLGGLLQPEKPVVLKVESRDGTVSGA
Chain of Cytochrome P450 2C9 (P11712 whole entry): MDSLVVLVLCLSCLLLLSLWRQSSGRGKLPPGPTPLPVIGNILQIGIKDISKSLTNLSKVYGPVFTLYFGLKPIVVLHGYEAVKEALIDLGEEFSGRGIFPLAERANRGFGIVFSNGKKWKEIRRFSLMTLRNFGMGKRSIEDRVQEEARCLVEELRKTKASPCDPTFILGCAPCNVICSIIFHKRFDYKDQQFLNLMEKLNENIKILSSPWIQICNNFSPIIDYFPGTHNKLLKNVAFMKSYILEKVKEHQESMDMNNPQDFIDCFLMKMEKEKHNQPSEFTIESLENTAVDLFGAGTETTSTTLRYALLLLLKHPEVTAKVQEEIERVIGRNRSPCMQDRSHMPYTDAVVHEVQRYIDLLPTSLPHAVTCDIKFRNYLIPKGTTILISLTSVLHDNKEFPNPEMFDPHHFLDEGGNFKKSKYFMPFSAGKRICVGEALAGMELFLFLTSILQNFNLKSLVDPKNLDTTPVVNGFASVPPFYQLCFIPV

Compound | EC50 (Cannabinoid receptor 2 [1]) [µM] | Efficacy (Cannabinoid receptor 2 [2]) [%] | IC50 (Cytochrome P450 1A2) [µM] | IC50 (Cytochrome P450 2C9) [µM] | IC50 (Cytochrome P450 2C19) [µM] | IC50 (Cytochrome P450 2D6) [µM] | IC50 (Cytochrome P450 3A4) [µM] | CL (Liver microsomes) [mL/min/g] | Efficacy [3] [%]
COc1cccc(CNC(=O)c2cnc(Nc3cccc(Cl)c3)nc2C(F)(F)F)c1 | 25 | 20 |  |  |  |  |  |  | 
N#Cc1cccc(Nc2ncc(C(=O)NCc3ccccc3)c(C(F)(F)F)n2)c1 | 0.455 | 76 |  |  |  |  |  |  | 
O=C(NCc1ccncc1)c1cnc(Nc2cccc(Cl)c2)nc1C(F)(F)F | 0.06 | 94 | 0.4 | 0.9 | 1.9 | < 0.1 | < 0.1 |  | 
O=C(NCC1CCOCC1)c1cnc(Nc2cc(Cl)ccc2F)nc1C(F)(F)F | 0.125 | 86 | 26 | 37 | > 100 | > 100 | 68 |  | 
O=C(NCc1ccccc1)c1cnc(Nc2ccccc2)nc1C(F)(F)F | 0.4 | 45 |  |  |  |  |  | < 0.5 | 
O=C(NCC1CCOCC1)c1cnc(Nc2c(Cl)cccc2Cl)nc1C(F)(F)F | 0.63 | 86 |  |  |  |  |  |  | 
O=C(OCc1ccco1)c1cnc(N2CCOCC2)nc1C(F)(F)F | 0.63 | 55 |  |  |  |  |  |  | 
O=C(NCc1ccccc1Cl)c1cnc(Nc2cccc(Cl)c2)nc1C(F)(F)F | 10 | 21 |  |  |  |  |  |  | 
O=C(NCC1CCOCC1)c1cnc(Nc2ccc(Cl)cc2F)nc1C(F)(F)F | 0.2 | 80 | > 100 | > 100 | > 100 | > 100 | > 100 |  | 
O=C(NCc1ccccc1)c1cnc(Nc2ccccc2Cl)nc1C(F)(F)F | 0.25 | 48 |  |  |  |  |  |  | 
O=C(NCC1CCOCC1)c1cnc(Nc2cccc(F)c2F)nc1C(F)(F)F | 0.4 | 90 |  |  |  |  |  |  | 
O=C(NCC1CCCCC1)c1cnc(Nc2cccc(Cl)c2)nc1C(F)(F)F | 0.08 | 82 | > 100 | 9 | 19 | > 100 | 82 |  | 
O=C(NCC1CC1)c1cnc(Nc2cccc(Cl)c2)nc1C(F)(F)F | 0.08 | 79 |  |  |  |  |  |  | 
O=C(NCc1ccc(F)cc1)c1cnc(Nc2cccc(Cl)c2)nc1C(F)(F)F | 0.063 | 78 | 8 | 8 | 12 | 1.5 | 5 |  | 
O=C(NCc1ccco1)c1cnc(Nc2ccccc2)nc1C(F)(F)F | 0.63 | 62 |  |  |  |  |  | 4.6 | 
O=C(NCC1CCOCC1)c1cnc(Nc2cccc(Cl)c2Cl)nc1C(F)(F)F | 0.08 | 90 |  |  |  |  |  |  | 
O=C(NCC1CCOCC1)c1cnc(Nc2ccc(Cl)c(Cl)c2)nc1C(F)(F)F | 0.049 | 83 | 8 | > 25 | > 25 | > 25 | > 25 |  | 10
O=C(NCc1ccccc1)c1cnc(Nc2cccc(F)c2)nc1C(F)(F)F | 0.31 | 88 |  |  |  |  |  |  | 
O=C(NCc1cccc(Cl)c1)c1cnc(Nc2cccc(Cl)c2)nc1C(F)(F)F | 1.58 | 18 |  |  |  |  |  |  | 
COc1ccccc1CNC(=O)c1cnc(Nc2cccc(Cl)c2)nc1C(F)(F)F | > 25 | 78 |  |  |  |  |  |  | 
O=C(NCC1(O)CCCCC1)c1cnc(Nc2cccc(Cl)c2)nc1C(F)(F)F | 0.125 | 83 | 11 |  | 17 | 13 |  |  | 
CC(=O)Nc1ccc(Nc2ncc(C(=O)NCc3ccccc3)c(C(F)(F)F)n2)cc1 | > 25 |  |  |  |  |  |  |  | 
O=C(NCC1CCOCC1)c1cnc(Nc2cc(F)cc(F)c2)nc1C(F)(F)F | 0.125 | 91 | 24 | > 100 | 91 | 45 | > 100 |  | 
